Results on one substance are retold here after patent US20220133701A1, “METHODS OF TREATING PAIN” (Yeda Research and Development Co. Ltd., priority 2019, published 2022).

Holding throughout (format): in vivo, mouse
In data set [1] the test system is mice. Description: Response to noxious heat (metal probe heated to 58° C. applied to paw, paw withdrawal latency). As to the method:
Pain Models—Responses to noxious heat were assessed by applying a metal probe heated to 58° C. to a forelimb paw, while holding the animal. Paw withdrawal latency was timed, typically ranging between 2-4 seconds in wild-type animals. If the paw was not withdrawn within 20 seconds the assay was terminated. The test was repeated three times for each animal, with at least 20 minute intervals between repeats. Heat sensitivity was also assessed using the hot plate test [L. Urien et al., Sci Rep 7, 43493 (2017)]. To this end, mice were placed individually in a 20 cm high Plexiglas box on a metal surface set at 52, 55 or 58° C., and the latency to initiate a nociceptive response (licking, hind paws shaking, jumping) was monitored by videotape. Mice were removed from the plate immediately after a nociceptive response.

Data set [2] has as its system SNI mice. Nature of the data set: Spared nerve injury (SNI) model of neuropathic pain, paw withdrawal threshold (PWT) by Von Frey test. To be noted: SNI mice, viral (AAV9) knockdown followed by SNI, from day 60 onward, vs shCtrl (FIG. 4E). As to the method:
Chronic neuropathic pain was assessed using the spared nerve injury (SNI) model^13. Mice were anaesthetized with Ketamine/Xylazine (10 mg/kg body weight, intraperitoneal). The skin on the lateral surface of the thigh was incised and a section was made directly through the biceps femoris muscle in order to expose the sciatic nerve and its three terminal branches: the sural, common peroneal and tibial nerves. The SNI procedure comprised an axotomy and ligation of the tibial and common peroneal nerves leaving the sural nerve intact. The peroneal and the tibial nerves were tight-ligated and sectioned distal to the ligation. […] Following, mice were evaluated over a period of three months.
Von Frey tests of sensitivity to mechanical stimuli were conducted as previously described [Marvaldi et al. Dev Neurobiol 75, 217 (2015)]. Briefly, mice were placed in acrylic chambers suspended above a wire mesh grid and allowed to habituate to the testing apparatus for one hour prior to experiments. When the mouse was calm, the von Frey filaments were pressed against the plantar surface of the paw until the filament buckled and held for a maximum of 3 seconds. A positive response was noted if the paw was sharply withdrawn on application of the filament. Testing began with filament target force 13.7 milliNewtons and progressed according to an up-down method. 2 gram Von Frey filaments were used to assess sensitivity to noxious mechanical stimulation, scoring mice responses as follows: 0, no response; 1, visible signs of discomfort without leg withdrawal; 2, withdrawal of the leg.

Data set [3] deals with importin α3. Description: Importin α3 immunostaining intensity in DRG sections and cultured DRG neurons (line scan / nuclear intensity). As to the method: Histology—Lumbar sections of the spinal cord including Dorsal root ganglia (DRGs) were pre-fixed for 6 minutes before dissection of spinal cord and associated DRGs. Lumbar DRG (L4, unless otherwise indicated) and/or spinal cord were then fixed for six hours in 4% PFA in PBS, washed in PBS and equilibrated in 20% w/v sucrose in PBS prior to serial cryo-sectioning at a thickness of 10-20 μm. Following, one set for each DRG was processed for immunostaining. […]
Fluorescence Intensity Analysis: Line scan analysis of fluorescence intensity was carried out on high-resolution confocal z-stack from DRG sections to determine fluorescence intensity of c-FOS and importin α3 over cell regions of interest in-vivo. […] The integrated density was calculated as the sum of the values of the pixels in both cytoplasmic and nuclear regions of interest determined on the basis of TuJ-1, CGRP, TRPV1 or DAPI staining, respectively.

Data set [4] relates to SNI mice. Nature of the data set: CatWalk gait analysis (footprint width) in SNI mice. To be noted: AAV9 shRNA, 60 days post-injury, vs shCtrl (FIG. 4D). As to the method:
CatWalk gait analysis and training was carried out as previously described [Perry et al. Neuron 75, 294 (2012)]. Motivation was achieved by a combination of food restriction during the initial training and placing of palatable reward at runway ends. The test was repeated three times for each mouse. Data were collected and analyzed using the Catwalk Ethovision XT11 software (Noldus Information Technology, The Netherlands). The analyzed indices are reported for each animal as print area and print width.

Data set [5] relates to mice. Nature of the data set: Open field. The following applies: wild-type mice three weeks after intrathecal AAV9 shRNA (FIG. 5A). On the procedure:
Motility and anxiety-like behaviors were assayed in the open field (OF) as previously described^8. Mouse activity was tracked and recorded using VideoMot2 (TSE System, Germany). OF was performed under 120 1× for the assessment of anxiety-related behaviors. The OF raw data were further analyzed with COLORcation [Dagan et al. J Neurosci Methods 270, 9 (2016)].

The subject of data set [6] is mice. Description: Rotarod. To be noted: wild-type mice three weeks after intrathecal AAV9 shRNA (FIG. 5B). As to the method: Rotarod experiments to assess integrity of balance and coordination [Crawley. Neuron 57, 809 (2008)] was carried out using a ROTOR-ROD™ system (83×91×61-SD Instruments, San Diego). Mice were subjected to three trials with 20 minutes inter-trial intervals over three consecutive days, at three weeks and five weeks after AAV9 injection, calculating the daily average each time. Rotarod acceleration was set to 20 rpm in 240 seconds. Latency to fall (sec) was recorded and the average of the three or six consecutive trials was used as an index of motor coordination and balance.
On the technique in general: In the rotarod test animals must keep their balance on a rotating rod.

Where [7] appears, read: listed as anti-importin α3 shRNA.
The mark [8] stands for this setting: listed as anti-importin α3 shRNAs.

“shα3: AAV9 expressing an importin α3 targeting shRNA (SEQ ID NO: 8), intrathecal injection (DNA GATCCGGCTTTGACAAACATTGCATGAAGCTTGATGCAATGTTTGTCAAAGCCTTTTTT)”: the “response to noxious heat” value in data set [1] (importin α3 knockout (−/−) mice after intrathecal AAV9 construct) is listed as “No further alteration of the noxious heat response”; in data set [1] (importin α3 knockout (−/−) mice after intrathecal AAV9 construct, listed as anti-importin α3 shRNAs), “no further effect on responses to noxious heat”; in data set [1] (wild type mice after intrathecal injection of AAV9 construct, vs control construct), “reduced response of WT mice to noxious heat”; in data set [1] (wild type mice after intrathecal injection of AAV9 construct, vs control construct, listed as anti-importin α3 shRNAs), “delayed paw withdrawal latency to noxious heat”. Further, the “paw withdrawal threshold (PWT), Von Frey test” value in data set [2] is “recovery”; in data set [2] (setting [7]) it was “significant recovery of the paw withdrawal reflex”. For the same substance, the “impα3 nuclear intensity in cultured DRG neurons” value in data set [3] (cultures of treated animals vs shCtrl (FIGS. 3G-H)) is reported as “significant reduction in nuclear levels”. In addition, in data set [3] (wild type mice one month following intrathecal injection, vs shCtrl (FIG. 3E)), the “impα3 signal, line scan intensity in DRG sections” value is on record as “reduction of impα3 signal”. The “footprint width / paw morphology and gait parameters, Catwalk” value in data set [4] was “significant recovery by 60 days”; in data set [4] (setting [7]), “regained unaltered paw morphology and gait parameters”. For the same substance, the “open field (exploratory behaviour)” value in data set [5] is “No deficits were observed in either test”; in data set [5] (setting [8]) it was “no effect”. Moreover, the entries for the “rotarod (motor coordination)” value in data set [6] and in data set [6] (setting [8]) were “No deficits were observed in either test” and “no effect”, respectively.
